Where “and” joins values, the source holds several entries; their conditions need not be identical. Equal values may be shown once. Toxic doses and inconclusive results are not listed.
System: L1210 leukemia ip in BDF1 mice, survival T/C
Assay: NCI In Vivo Anticancer Drug Screen. Data for tumor model L1210 Leukemia (intraperitoneal) in B6D2F1 (BDF1) mice
Conditions: endpoint: mean survival time, higher = longer survival
Method in brief: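 Ratio derived from survival: compound-dosed mice over vehicle-dosed mice, all bearing a transplantable tumor.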

[1] = dose: 100.0 mg/kg/injection, schedule: Q01DX001 (ip), vehicle: carboxymethylcellulose (CMC)
[2] = dose: 200.0 mg/kg/injection, schedule: Q01DX001 (ip), vehicle: carboxymethylcellulose (CMC)
[3] = dose: 400.0 mg/kg/injection, schedule: Q01DX001 (ip), vehicle: carboxymethylcellulose (CMC)

O=C(O)c1cc(OCc2ccccc2)cc(OCc2ccccc2)c1
T/C (dose: 25.0 mg/kg/injection, schedule: Q01DX009 (ip), vehicle: carboxymethylcellulose (CMC)): 102 % of control and 105 % of control
T/C (dose: 50.0 mg/kg/injection, schedule: Q01DX009 (ip), vehicle: carboxymethylcellulose (CMC)): 101 % of control and 91 % of control
T/C [1]: 101 % of control and 103 % of control
T/C (dose: 100.0 mg/kg/injection, schedule: Q01DX009 (ip), vehicle: carboxymethylcellulose (CMC)): 92 % of control and 112 % of control and 91 % of control
T/C (dose: 100.0 mg/kg/injection, schedule: Q04DX002 (ip), vehicle: carboxymethylcellulose (CMC)): 92 % of control and 88 % of control
T/C (dose: 100.0 mg/kg/injection, schedule: Q04DX003 (ip), vehicle: carboxymethylcellulose (CMC)): 95 % of control and 97 % of control
T/C [2]: 96 % of control and 107 % of control
T/C (dose: 200.0 mg/kg/injection, schedule: Q04DX002 (ip), vehicle: carboxymethylcellulose (CMC)): 95 % of control and 97 % of control
T/C (dose: 200.0 mg/kg/injection, schedule: Q04DX003 (ip), vehicle: carboxymethylcellulose (CMC)): 99 % of control and 91 % of control
T/C [3]: 93 % of control and 96 % of control
T/C (dose: 400.0 mg/kg/injection, schedule: Q04DX002 (ip), vehicle: carboxymethylcellulose (CMC)): 92 % of control and 97 % of control
T/C (dose: 400.0 mg/kg/injection, schedule: Q04DX003 (ip), vehicle: carboxymethylcellulose (CMC)): 92 % of control and 100 % of control

COc1cc2nc(/C=C/c3nc4cc(OC)c(OC)cc4[nH]3)[nH]c2cc1OC
T/C (dose: 25.0 mg/kg/injection, schedule: Q01DX001 (ip), vehicle: saline with Tween-80): 100 % of control
T/C (dose: 50.0 mg/kg/injection, schedule: Q01DX001 (ip), vehicle: saline with Tween-80): 100 % of control
T/C (dose: 100.0 mg/kg/injection, schedule: Q01DX001 (ip), vehicle: saline with Tween-80): 94 % of control

COC1(OC)CC2C(=O)CCCC21OC (configuration not stated)
T/C (dose: 100.0 mg/kg/injection, schedule: Q04DX002 (ip), vehicle: saline with Tween-80): 100 % of control
T/C (dose: 200.0 mg/kg/injection, schedule: Q04DX002 (ip), vehicle: saline with Tween-80): 93 % of control
T/C (dose: 400.0 mg/kg/injection, schedule: Q04DX002 (ip), vehicle: saline with Tween-80): 97 % of control

COc1cc(C=O)ccc1OC(=O)Nc1cc([N+](=O)[O-])ccc1F
T/C (dose: 100.0 mg/kg/injection, schedule: Q01DX009 (ip), vehicle: Klucel (hydroxypropylcellulose) (HPC)): 97 % of control
T/C (dose: 200.0 mg/kg/injection, schedule: Q01DX009 (ip), vehicle: Klucel (hydroxypropylcellulose) (HPC)): 93 % of control
T/C (dose: 400.0 mg/kg/injection, schedule: Q01DX009 (ip), vehicle: Klucel (hydroxypropylcellulose) (HPC)): 92 % of control

CCOC(=O)c1ccc(N=NN(CCF)CCF)cc1
T/C (dose: 10.0 mg/kg/injection, schedule: Q01DX Z (ip), vehicle: saline): 95 % of control
T/C (dose: 30.0 mg/kg/injection, schedule: Q01DX Z (ip), vehicle: saline): 94 % of control
T/C (dose: 100.0 mg/kg/injection, schedule: Q01DX Z (ip), vehicle: saline): 89 % of control
T/C (dose: 300.0 mg/kg/injection, schedule: Q01DX Z (ip), vehicle: saline): 95 % of control

O=C(O)c1ccccc1C(=O)OC1CC2CCC1C2 (configuration not stated)
T/C (dose: 100.0 mg/kg/injection, schedule: Q01DX001 (ip), vehicle: Klucel (hydroxypropylcellulose) (HPC)): 100 % of control
T/C (dose: 200.0 mg/kg/injection, schedule: Q01DX001 (ip), vehicle: Klucel (hydroxypropylcellulose) (HPC)): 94 % of control
T/C (dose: 400.0 mg/kg/injection, schedule: Q01DX001 (ip), vehicle: Klucel (hydroxypropylcellulose) (HPC)): 98 % of control

CCOC(=O)C1C2c3ccccc3C(C1C(=O)OCC)[n+]1ccccc12 (configuration not stated)
T/C (dose: 100.0 mg/kg/injection, schedule: Q04DX003 (ip), vehicle: saline): 100 % of control
T/C (dose: 200.0 mg/kg/injection, schedule: Q04DX003 (ip), vehicle: saline): 97 % of control
T/C (dose: 400.0 mg/kg/injection, schedule: Q04DX003 (ip), vehicle: saline): 100 % of control

Cc1nc(N)nc(N)c1-c1ccc(Cl)c(Cl)c1
T/C (dose: 0.6 mg/kg/injection, schedule: Q01DX Z (ip), vehicle: methylcellulose (MC)): 106 % of control
T/C (dose: 1.0 mg/kg/injection, schedule: Q01DX009 (ip), vehicle: saline with Tween-80): 102 % of control
T/C (dose: 1.0 mg/kg/injection, schedule: Q01DX Z (ip), vehicle: methylcellulose (MC)): 102 % of control
T/C (dose: 1.0 mg/kg/injection, schedule: Q04DX009 (ip), vehicle: Klucel (hydroxypropylcellulose) (HPC)): 96 % of control
T/C (dose: 1.08 mg/kg/injection, schedule: Q01DX009 (ip), vehicle: saline): 117 % of control
T/C (dose: 1.5 mg/kg/injection, schedule: Q01DX Z (ip), vehicle: methylcellulose (MC)): 106 % of control
T/C (dose: 1.8 mg/kg/injection, schedule: Q01DX009 (ip), vehicle: saline): 107 % of control
T/C (dose: 2.0 mg/kg/injection, schedule: Q04DX009 (ip), vehicle: Klucel (hydroxypropylcellulose) (HPC)): 120 % of control
T/C (dose: 2.3 mg/kg/injection, schedule: Q01DX Z (ip), vehicle: methylcellulose (MC)): 112 % of control
T/C (dose: 3.0 mg/kg/injection, schedule: Q01DX009 (ip), vehicle: saline): 114 % of control
T/C (dose: 3.0 mg/kg/injection, schedule: Q01DX010 (sc), vehicle: other): 152 % of control
T/C (dose: 4.0 mg/kg/injection, schedule: Q01DX010 (sc), vehicle: other): 152 % of control
T/C (dose: 4.0 mg/kg/injection, schedule: Q01DX Z (ip), vehicle: methylcellulose (MC)): 118 % of control
T/C (dose: 5.0 mg/kg/injection, schedule: Q01DX009 (ip), vehicle: saline): 122 % of control
T/C (dose: 6.0 mg/kg/injection, schedule: Q01DX Z (ip), vehicle: methylcellulose (MC)): 123 % of control
T/C (dose: 8.0 mg/kg/injection, schedule: Q01DX009 (ip), vehicle: saline with Tween-80): 102 % of control
T/C (dose: 8.0 mg/kg/injection, schedule: Q04DX009 (ip), vehicle: Klucel (hydroxypropylcellulose) (HPC)): 115 % of control
T/C (dose: 8.4 mg/kg/injection, schedule: Q04DX003 (ip), vehicle: saline): 102 % of control
T/C (dose: 12.5 mg/kg/injection, schedule: Q04DX003 (ip), vehicle: saline): 95 % of control
T/C (dose: 14.0 mg/kg/injection, schedule: Q04DX003 (ip), vehicle: saline): 115 % of control
T/C (dose: 16.0 mg/kg/injection, schedule: Q01DX009 (ip), vehicle: saline with Tween-80): 90 % of control
T/C (dose: 16.0 mg/kg/injection, schedule: Q04DX009 (ip), vehicle: Klucel (hydroxypropylcellulose) (HPC)): 110 % of control
T/C (dose: 23.0 mg/kg/injection, schedule: Q04DX003 (ip), vehicle: saline): 105 % of control
T/C (dose: 25.0 mg/kg/injection, schedule: Q01DX001 (ip), vehicle: saline): 98 % of control
T/C (dose: 25.0 mg/kg/injection, schedule: Q04DX003 (ip), vehicle: saline): 122 % of control
T/C (dose: 39.0 mg/kg/injection, schedule: Q04DX003 (ip), vehicle: saline): 119 % of control
T/C (dose: 50.0 mg/kg/injection, schedule: Q01DX001 (ip), vehicle: saline): 112 % of control
T/C (dose: 65.0 mg/kg/injection, schedule: Q04DX003 (ip), vehicle: saline): 115 % of control
T/C (dose: 200.0 mg/kg/injection, schedule: Q01DX001 (ip), vehicle: saline): 88 % of control

[CH3][Pb]([CH3])([CH3])[O]C(=O)CCl
T/C (dose: 0.39 mg/kg/injection, schedule: Q01DX009 (ip), vehicle: saline with Tween-80): 97 % of control
T/C (dose: 0.78 mg/kg/injection, schedule: Q01DX009 (ip), vehicle: saline with Tween-80): 97 % of control
T/C (dose: 1.56 mg/kg/injection, schedule: Q01DX009 (ip), vehicle: saline with Tween-80): 95 % of control and 115 % of control

C[n+]1ccc(/C=C\Nc2ccccc2)cc1
T/C (dose: 75.0 mg/kg/injection, schedule: Q01DX001 (ip), vehicle: other): 94 % of control
T/C (dose: 150.0 mg/kg/injection, schedule: Q01DX001 (ip), vehicle: other): 94 % of control
T/C (dose: 300.0 mg/kg/injection, schedule: Q01DX001 (ip), vehicle: other): 94 % of control

N#C/C(=C\C=C\c1ccccc1)c1cccc(Cl)c1
T/C (dose: 87.5 mg/kg/injection, schedule: Q01DX009 (ip), vehicle: Klucel (hydroxypropylcellulose) (HPC)): 89 % of control
T/C (dose: 175.0 mg/kg/injection, schedule: Q01DX009 (ip), vehicle: Klucel (hydroxypropylcellulose) (HPC)): 92 % of control
T/C (dose: 350.0 mg/kg/injection, schedule: Q01DX009 (ip), vehicle: Klucel (hydroxypropylcellulose) (HPC)): 101 % of control

CCOC(=O)C1(Br)CCN(S(=O)(=O)c2ccc(C)cc2)c2ccccc2C1=O (configuration not stated)
T/C [1]: 108 % of control
T/C [2]: 103 % of control
T/C [3]: 100 % of control
